Experimental findings from US5541343A, “Cyclic imino derivatives and pharmaceutical compositions containing them” (Karl Thomae GmbH, priority 1990, dated 1996) are described below.

One series relates to platelet aggregation. Description: Antithrombotic effect: collagen-induced platelet aggregation (Born and Cross method) in platelet-rich plasma. The class given is cell-based. Particulars: Homo sapiens, 10 minutes preincubation at 37° C., 50% change in optical density, read-out: Inhibition of platelet aggregation EC50. As to the method: The thrombocyte aggregation is measured by the Born and Cross method (J. Physiol. 170: 397 (1964)) in platelet-rich plasma from healthy test subjects. To inhibit coagulation, 3.14% sodium citrate is added to the blood in a ratio by volume of 1:10.
Collagen-induced aggregation
The curve of the decrease in optical density of the platelet suspension is measured and recorded photometrically after the addition of the aggregation-inducing substance. The speed of aggregation is determined from the angle of inclination of the density curve. The point on the curve where maximum transmittance occurs is used to calculate the optical density.
The quantity of collagen is made as small as possible but sufficient to produce an irreversible reaction curve. Standard commercial collagen made by Hormonchemie of Munich is used. Before the addition of collagen, the plasma is incubated for 10 minutes with the substance at 37° C.
From the measurements obtained, an EC50 is determined graphically relating to a 50% change in the optical density in the sense of an inhibition of aggregation.

The next series addresses human thrombocytes. Description: Fibrinogen binding to human thrombocytes. Particulars: gel-filtered platelets, 125-J-fibrinogen, 20 minutes at ambient temperature; read-out: Fibrinogen binding test IC50. As for the experimental part: 1. Fibrinogen binding to human thrombocytes
Blood obtained by puncture of an antecubital vein is anticoagulated with trisodium citrate (final concentration: 13 mM) and centrifuged for 10 minutes at 170 g. The supernatant platelet-rich plasma is placed on a Sepharose 2B column (Pharmacia) and eluted with a solution of 90 mM common salt, 14 mM trisodium citrate, 5 mM glucose and 50 mM tris(hydroxymethyl)aminomethane, adjusted to pH 7.4. The gel-filtered platelets (GFP) appearing in front of the plasma proteins are used for the binding tests.
50 μl of a 60 mM calcium chloride solution, 50 μl of a 0.6 mM adenosine diphosphate solution, 100 μl of substance solution or solvent and 50 μl of fibrinogen solution (containing 3 μg 125-J-fibrinogen) are added to 750 μl of GFP and incubated for 20 minutes at ambient temperature. The non-specific binding is measured in the presence of 3 mg/ml of cold fibrinogen.
900 μl of the incubate are carefully pipetted onto 250 μl of silicon oil (AP 38: AR 20, 1:2 v/v, Wacker Chemie) in Eppendorf vessels and centrifuged for 2 minutes at 10,000 g. The aqueous supernatant and some of the oil are removed, the tip of the vessel with the platelet pellet is cut off and the quantity of bound fibrinogen is measured in a gamma-counter. The concentration of substance which inhibits fibrinogen binding by 50% is calculated from a concentration series and given as the IC50.

The subject of series [1] is collagen-induced thrombocyte aggregation. Description: Collagen-induced thrombocyte aggregation ex vivo in rhesus monkeys following oral administration. Particulars: 1 mg/kg. As for the experimental part: Moreover, the compound of Example 70(1), for example, inhibits collagen-induced thrombocyte aggregation ex vivo in rhesus monkeys following oral administration of 1 mg/kg for more than 8 hours.

Series [2] can be described thus: Approximate LD50 in rats (tolerability). Particulars: rat, in vivo, after intravenous route. As for the experimental part: The new compounds are well tolerated since the approximate LD50 in rats is, for example, for the compound of Example (3) above 100 mg/kg after intravenous route and for the compound of Example 70(1) above 2.000 mg/kg after oral administration.

Counter-ions that a name gives are not always drawn.

The term EC50 denotes the midpoint of the concentration-response curve. Usually IC50 stands for the concentration that inhibits the measured activity by half. Regarding `N=C(N)c1cccc(C(=O)c2ccc(OC[C@@H]3C[C@@H](CC(=O)O)C(=O)N3CCCc3ccccc3)cc2)c1` [7(46), (3S,5S)-5-[[4-[(3-amidinophenyl)carbonyl]phenyl]oxymethyl]-3-carboxymethyl-1-(3-phenylpropyl)-2-pyrrolidinone], the half-maximal effective concentration (EC50) in the series on platelet aggregation came out at 12000 nM. Further, the 50% inhibitory concentration (IC50) on human thrombocytes was 690 nM.
With `N=C(N)c1ccc(-c2ccc(OC[C@@H]3C[C@@H](CC(=O)O)C(=O)N3)cc2)cc1F` [7(93), (3S,5S)-5-[(4'-amidino-3'-fluoro-4-biphenylyl)oxymethyl]-3-carboxymethyl-2-pyrrolidinone], in the series on platelet aggregation, the concentration giving a half-maximal response (EC50) came to 100 nM. Moreover, at human thrombocytes, the IC50 was found to be 26 nM.
On the same counts, the results for `N=C(N)NCCCCCOc1ccc([C@@H]2C[C@@H](CC(=O)O)C(=O)N2CCCc2ccccc2)cc1` (relative stereo) [31(1), (3S,R;5S,R)-3-carboxymethyl-5-[4-[(5-guanidinopentyl)oxy]phenyl]-1-(3-phenylpropyl)-2-pyrrolidinone] are 66000 nM and 4700 nM.
Take `COC(=O)C[C@@H]1C[C@@H](COc2ccc(-c3ccc(C(=N)NC(=O)OC)cc3)cc2)NC1=O` [Example 70(1), (3S,5S)-5-[[4'-(N-methoxycarbonylamidino)-4biphenylyl]oxymethyl]-3-[(methoxycarbonyl)methyl]-2-pyrrolidinone]: in series [1], the “inhibits collagen-induced thrombocyte aggregation ex vivo (duration of inhibition)” value was “more than 8 hours”.
As to `N=C(N)c1ccc(-c2ccc(S(=O)(=O)NC[C@@H]3C[C@@H](CC(=O)O)C(=O)N3CCCc3ccccc3)cc2)cc1` [7(70)], the 50% effective concentration (EC50) in the series with platelet aggregation was 19000 nM. In addition, on human thrombocytes, the 50% inhibitory concentration (IC50) worked out at 400 nM.
Take `NCCCC(=O)Nc1ccc(OC[C@@H]2C[C@@H](CC(=O)O)C(=O)N2CCCc2ccccc2)cc1` [32(1), (3S,5S)-5-[[4-[(3-aminopropyl)carbonylamino]phenyl]oxymethyl]-3-carboxymethyl-1-(3-phenylpropyl)-2-pyrrolidinone]: the EC50 with platelet aggregation was 33000 nM. Also, on human thrombocytes, the half-inhibitory concentration (IC50) is 2200 nM.
In the case of `NC1CCc2cc(C(=O)NCC[C@@H]3C[C@@H](CC(=O)O)C(=O)N3CCCc3ccccc3)ccc2C1` (stereo partly drawn) [Example 32, (3S,5S)-5-[2-[(6-Amino-5,6,7,8-tetrahydro-2-naphthylcarbonyl)amino]ethyl]-3-carboxymethyl-1-(3-phenylpropyl)-2-pyrrolidinone-semihydrate], the concentration giving a half-maximal response (EC50) with platelet aggregation came to 5800 nM. In addition, the IC50 on human thrombocytes stood at 1200 nM.
On the same counts, the results for `N=C(NO)c1ccc(-c2ccc(OC[C@@H]3C[C@@H](CC(=O)O)C(=O)N3)cc2)cc1` [Example 71, (3S,5S)-3-Carboxymethyl-5-[[4'-(N-hydroxyamidino)-4biphenylyl)oxymethyl]-2-pyrrolidinone] are 11000 nM and 4600 nM.
On the same counts, the results for `N=C(N)c1ccc(-c2ccc(OC[C@H]3CNC(=O)[C@@H]3CC(=O)O)cc2)cc1` (relative stereo) [7(89), (3R,S;4R,S)-4-[(4'-amidino-4-biphenylyl)oxymethyl]-3-carboxymethyl-2-pyrrolidinone] are 2800 nM and 230 nM.
Regarding `N=C(N)c1ccc(-c2ccc(OC[C@@H]3C[C@@H](CC(=O)O)C(=O)N3CCCc3ccccc3)cc2)cc1` [Example 7, (3S,5S)-5-[(4'-Amidino-4-biphenylyl)oxymethyl)-3-carboxymethyl-1-(3-phenylpropyl)-2-pyrrolidinone-hydrate], in the series on platelet aggregation, the concentration giving a half-maximal response (EC50) was determined as 900 nM. Besides, the half-inhibitory concentration (IC50) on human thrombocytes was 32 nM.
`Cc1c(OC[C@@H]2C[C@@H](CC(=O)O)C(=O)N2CCCc2ccccc2)ccc(-c2ccc(C(=N)N)cc2)c1C` [7(10), (3S,5S)-5-[(4'-amidino-2,3-dimethyl-4-biphenylyl)oxymethyl]-3-carboxymethyl-1-(3-phenylpropyl)-2-pyrrolidinone-hydrate]: in the series with platelet aggregation, the 50% effective concentration (EC50) amounted to 2600 nM. Moreover, at human thrombocytes, the IC50 was found to be 50 nM.
Take `N=C(N)c1ccc(-c2ccc(N3CC(CP(=O)(O)O)CC3=O)cc2)cc1` (centres unmarked) [6(184), 1-(4'-amidino-4-biphenylyl)-4-phosphonomethyl-2-pyrrolidinone]: the concentration giving a half-maximal response (EC50) in the series on platelet aggregation was determined as 1000 nM. In addition, the half-maximal inhibitory concentration (IC50) at human thrombocytes amounted to 420 nM.
On the same counts, the results for `COC(=O)C[C@@H]1C[C@@H](COc2ccc(-c3ccc(C(=N)N)cc3)cc2)NC1=O` [6(2), (3S,5S)-5-[(4'-amidino-4-biphenylyl)oxymethyl]-3-[(methoxycarbonyl)methyl]-2-pyrrolidinone×1.25 HCl] are 1900 nM and 2300 nM.
By LD50 is commonly meant the dose expected to kill half of the subjects tested. Read a high LD50 as lower toxicity. As for `N=C(N)c1ccc(-c2ccc(OC[C@@H]3C[C@@H](CC(=O)O)C(=O)N3)cc2)cc1` [Example (3), (3S,5S)-5-[(4'-amidino-4-biphenylyl)oxymethyl]-3-carboxymethyl-2-pyrrolidinone], the 50% lethal dose (LD50) in series [2] was more than 100 mg/kg.
In the case of `N=C(N)c1ccc(-c2ccc(OC[C@@H]3C[C@@H](CC(=O)O)C(=O)N3c3ccccc3)cc2)cc1` [7(1), (3S,5S)-5-[(4'-amidino-4-biphenylyl)oxymethyl]-3-carboxymethyl-1-phenyl-2-pyrrolidinone-dihydrate], in the series on platelet aggregation, the EC50 stood at 170 nM. Besides, on human thrombocytes, the IC50 is 24 nM.
Take `N=C(N)c1ccc2c(c1)C(=O)c1cc(OC[C@@H]3C[C@@H](CC(=O)O)C(=O)N3CCCc3ccccc3)ccc1-2` [7(36), (3S,5S)-5-[(7-amidino-9-keto-2-fluorenyl)oxymethyl]-3-carboxymethyl-1-(3-phenylpropyl)-2-pyrrolidinone]: in the series with platelet aggregation, the EC50 is 410 nM. On human thrombocytes, the half-maximal inhibitory concentration (IC50) was found to be 41 nM.
Turning to `CN(C)S(=O)(=O)N1C[C@H](CC(=O)O)C[C@H]1COc1ccc(-c2ccc(C(=N)N)cc2)cc1` [7(58), (3S,5S)-5-[(4'-amidino-4-biphenylyl)oxymethyl]-3-carboxymethyl-1-(dimethylaminosulphonyl)-pyrrolidine×0.25 water], in the series with platelet aggregation, the EC50 is 210 nM. Also, the IC50 at human thrombocytes is 20 nM.
On the same counts, the results for `CC(=O)N1C[C@H](CC(=O)O)C[C@H]1COc1ccc(-c2ccc(C(=N)N)cc2)cc1` [7(56), (3S,5S)-1-acetyl-5-[(4'-amidino-4-biphenylyl)oxymethyl]-3-carboxymethyl-pyrrolidine-semihydrate] are 60 nM and 20 nM.
With `NCCCCc1ccc(OC[C@@H]2C[C@@H](CC(=O)O)C(=O)N2CCCc2ccccc2)cc1` [23(8), (3S,5S)-5-[[4-(4-aminobutyl)phenyl]oxymethyl]-3-carboxymethyl-1-(3-phenylpropyl)-2-pyrrolidinonesemihydrate ×1.25 HCl], the concentration giving a half-maximal response (EC50) in the series with platelet aggregation was 20000 nM. In addition, the half-inhibitory concentration (IC50) at human thrombocytes is 4600 nM.
On the same counts, the results for `CN(C)C(=O)CN1C(=O)[C@H](CC(=O)O)C[C@H]1COc1ccc(-c2ccc(C(=N)N)cc2)cc1` [7(51), (3S,5S)-5-[(4'-amidino-4-biphenylyl)oxymethyl]-3-carboxymethyl-1-[(dimethylaminocarbonyl)methyl]-2-pyrrolidinone hydrochloride-semihydrate] are 80 nM and 27 nM.
As for `N=C(N)c1ccc(-c2ccc(OC[C@@H]3C[C@@H](CC(=O)O)C(=O)N3)cc2)cc1` [7(3), (3S,5S)-5-[(4'-amidino-4-biphenylyl)oxymethyl]-3-carboxymethyl-2-pyrrolidinone], the EC50 in the series on platelet aggregation stood at 60 nM. Moreover, the 50% inhibitory concentration (IC50) on human thrombocytes was determined as 31 nM.
Take `CC(=O)N(C[C@@H]1C[C@@H](CC(=O)O)C(=O)N1CCCc1ccccc1)c1ccc(-c2ccc(C(=N)N)cc2)cc1` [7(40), (3S,5S)-5-[[N-(4'-amidino-4-biphenylyl)-N-acetyl]aminomethyl]-3-carboxymethyl-1-(3-phenylpropyl)-2-pyrrolidinonehydrate]: the EC50 with platelet aggregation stood at 2000 nM. The 50% inhibitory concentration (IC50) at human thrombocytes amounted to 170 nM.
For the compound `N=C(N)c1ccc(Nc2ccccc2C(=O)NC[C@@H]2C[C@@H](CC(=O)O)C(=O)N2CCCc2ccccc2)cc1` [7(41), (3S,5S)-5-[[2-[(4-amidinophenyl)amino]phenyl]carbonylaminomethyl]-3-carboxymethyl-1-(3-phenylpropyl)-2-pyrrolidinone], the EC50 in the series on platelet aggregation turned out to be 19000 nM. For the same compound, the IC50 at human thrombocytes worked out at 2800 nM.
